We go through eight compounds from article PMC7493195 (Journal of medicinal chemistry, 2020).

Data set [1] has as its system MDA-MB-231, H1975 and HCC827 cells. As to conditions: 72 h, three cell lines.
In another data set the target is FGFR1 (Homo sapiens, UniProt P11362). Briefly: Z’LYTE / LanthaScreen kinase assay. The data set is classed as biochemical. Background: Time-resolved FRET reads energy transfer from a long-lived donor to a nearby acceptor.
Data set [2] concerns p-SRC^Y416. Particulars: 3 doses of 5 mg/kg IP, 2 and 4 h after last dose.
The test system of the next data set is MEK1/2 and ERK1/2. Briefly: Cellular target engagement, TL13–68 competition pulldown, MEK1/2 and ERK1/2. Particulars: H1975 and HCC827 cells, 1 μM, 2 h. It counts as cell-based.
Data set [3] relates to p-SRC^Y416. Particulars: H1975 and HCC827 cells, 1 μM, 2 h.
A short description of data set [4]: Stability in mouse liver microsomes. The data set is classed as in vitro ADME.
Data set [5] has as its system p-SRC^Y416. Particulars: H1975, 1 μM, 2 h, then 0, 2, 4 h postwashout.
The next data set has as its target SRC (Homo sapiens, UniProt P12931). Briefly: Z’LYTE / LanthaScreen kinase assay. It counts as biochemical.
In data set [6] the test system is panel of 468 human kinases. Particulars: 1 μM, 468 kinases, cited from earlier work.
In a further data set the test system is kinases. As to conditions: cited from earlier work.

Where only a bound is given, the exact number is not on record here.

Sequence of FGFR1 (P11362 22-822): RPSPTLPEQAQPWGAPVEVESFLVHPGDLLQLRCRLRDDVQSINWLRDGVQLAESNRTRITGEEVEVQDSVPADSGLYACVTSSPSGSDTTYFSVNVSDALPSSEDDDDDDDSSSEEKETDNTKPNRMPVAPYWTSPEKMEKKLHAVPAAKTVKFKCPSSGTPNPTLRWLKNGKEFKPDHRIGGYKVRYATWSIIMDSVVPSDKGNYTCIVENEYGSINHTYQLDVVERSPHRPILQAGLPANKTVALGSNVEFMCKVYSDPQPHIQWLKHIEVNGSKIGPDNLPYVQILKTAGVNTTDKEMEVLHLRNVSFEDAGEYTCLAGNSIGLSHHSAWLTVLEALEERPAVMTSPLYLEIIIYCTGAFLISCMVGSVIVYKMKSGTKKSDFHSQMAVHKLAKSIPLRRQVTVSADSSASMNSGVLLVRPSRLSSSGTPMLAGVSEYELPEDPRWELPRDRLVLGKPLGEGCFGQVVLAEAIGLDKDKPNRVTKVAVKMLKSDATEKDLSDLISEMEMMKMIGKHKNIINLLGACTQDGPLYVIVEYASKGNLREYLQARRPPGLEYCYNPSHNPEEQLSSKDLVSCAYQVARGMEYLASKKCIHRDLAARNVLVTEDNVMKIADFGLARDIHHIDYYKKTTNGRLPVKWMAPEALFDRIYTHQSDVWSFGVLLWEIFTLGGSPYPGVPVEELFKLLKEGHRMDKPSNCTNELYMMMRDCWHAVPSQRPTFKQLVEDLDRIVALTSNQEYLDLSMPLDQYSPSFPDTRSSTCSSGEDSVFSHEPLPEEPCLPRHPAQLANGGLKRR
Sequence of SRC (P12931 whole entry): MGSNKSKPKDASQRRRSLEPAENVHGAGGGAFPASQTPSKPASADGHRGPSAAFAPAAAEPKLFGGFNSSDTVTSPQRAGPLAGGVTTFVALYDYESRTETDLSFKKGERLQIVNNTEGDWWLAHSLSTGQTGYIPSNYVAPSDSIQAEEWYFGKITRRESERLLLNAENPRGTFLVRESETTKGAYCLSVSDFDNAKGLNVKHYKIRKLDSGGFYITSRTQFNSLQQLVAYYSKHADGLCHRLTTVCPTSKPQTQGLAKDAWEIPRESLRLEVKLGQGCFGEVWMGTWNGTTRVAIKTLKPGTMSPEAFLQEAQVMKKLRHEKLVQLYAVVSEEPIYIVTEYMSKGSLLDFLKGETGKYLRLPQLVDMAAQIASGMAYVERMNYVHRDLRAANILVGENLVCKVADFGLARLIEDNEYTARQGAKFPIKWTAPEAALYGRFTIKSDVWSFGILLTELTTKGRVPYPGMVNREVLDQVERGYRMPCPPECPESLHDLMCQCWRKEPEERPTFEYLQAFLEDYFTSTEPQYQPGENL

For the compound `CN1CCN(CCOc2cc(OC3CCOCC3)c3c(Nc4c(Cl)ccc5c4OCO5)ncnc3c2)CC1` [AZD0530], the “growth inhibitory potency, in words” value in data set [1] is “weaker potency compared to 15a”.

For `C=CC(=O)Nc1ccccc1Nc1nc(Nc2ccc(N3CCN(C)CC3)cc2)ncc1OCc1ccc(Oc2ccccc2)cc1` [Compound 10c, N-(2-((2-((4-(4-Methylpiperazin-1-yl)phenyl)amino)-5-((4-phenoxybenzyl)oxy)pyrimidin-4-yl)amino)phenyl)acrylamide], the “loss of activity on FGFR1 compared to SM1–71” value at FGFR1 is listed as 20 fold.

With `C=CC(=O)Nc1ccccc1Nc1nc(Nc2ccc(N3CCN(C)CC3)cc2)ncc1C(=O)Nc1c(C)cccc1Cl` [Compound 15a, 4-((2-Acrylamidophenyl)amino)-N-(2-chloro-6-methylphenyl)-2-((4-(4-methylpiperazin-1-yl)phenyl)amino)pyrimidine-5-carboxamide], the “inhibition of p-SRC^Y416 in spleen” value in the data set on p-SRC^Y416 [2] was “inhibition of p-SRC^Y416 at 2 and 4 h postdosing”. Besides, the “cellular engagement of MEK1/2 or ERK1/2” value with MEK1/2 and ERK1/2 is recorded as “did not engage”. Further, the “inhibition of p-SRC^Y416 signaling” value in the data set on p-SRC^Y416 [3] was “inhibited p-SRC^Y416 signaling”. This compound registered a half-life in data set [4] of 5.2 min. Further, in the data set with p-SRC^Y416 [5], the “inhibition of p-SRC^Y416 signaling after washout” value is “potent and sustained inhibition of p-SRC^Y416 signaling up to 4 h postwashout”.

For the compound `C=CC(=O)Nc1ccccc1Nc1nc(Nc2ccc(N3CCN(C)CC3)cc2)ncc1C(=O)Nc1ccc(Oc2ccccc2)cc1` [Compound 15i, 4-((2-Acrylamidophenyl)amino)-2-((4-(4-methylpiperazin-1-yl)-phenyl)amino)-N-(4-phenoxyphenyl)pyrimidine-5-carboxamide], on FGFR1, the “activity on FGFR1, in words” value is listed as “complete loss of activity”. For the same compound, the “activity on SRC, in words” value on SRC is “complete loss of activity”.

In the case of `C=CC(=O)Nc1ccccc1Nc1nc(Nc2ccc(N3CCC(N4CCN(C)CC4)CC3)cc2)ncc1C(=O)Nc1c(C)cccc1Cl` [Compound 17c, 4-((2-Acrylamidophenyl)amino)-N-(2-chloro-6-methylphenyl)-2-((4-(4-(4-methylpiperazin-1-yl)piperidin-1-yl)phenyl)amino)-pyrimidine-5-carboxamide], at SRC, the “activity on SRC, in words” value is on record as “loss of binding”.

In the case of `C=CC(=O)Nc1ccccc1Nc1nc(Nc2ccc(N3CCN(C)CC3)cc2)ncc1Cl` [SM1–71], the “selectivity score S(35)” value in [6] (specified percent inhibition 35%) was 0.43. Also, the “number of kinases hit” value in data set [6] is reported as “more than 100 kinases”.

Take `COc1cc(Nc2c(C#N)cnc3cc(OCCCN4CCN(C)CC4)c(OC)cc23)c(Cl)cc1Cl` [bosutinib]: in the data set on kinases, the “number of kinases inhibited” value is recorded as > 45 kinases.

With `Cc1nc(Nc2ncc(C(=O)Nc3c(C)cccc3Cl)s2)cc(N2CCN(CCO)CC2)n1` [dasatinib], in the data set with kinases, the “number of kinases inhibited” value is > 30 kinases.

As usually defined, the half-life is the time needed for the level to fall by half in the phase considered. High values mean slow loss, low ones fast loss.
